Reference: the NIST ThermoML archive (doi:10.1007/s10765-007-0223-x)

Test: xn = mol fraction of the nth substance listed
Settings: 101 kPa, Liquid; for speed of sound: Single path-length method

COC(C)(C)C [2-methoxy-2-methylpropane] + Cc1ccccc1
Settings	mass density [kg/m3]	speed of sound [m/s]
288.15 K, x1 = 0.053	864.558	1332.9
288.15 K, x1 = 0.116	856.488	1315.9
288.15 K, x1 = 0.199	845.884	1295.2
288.15 K, x1 = 0.301	832.848	1268.1
288.15 K, x1 = 0.371	824.068	1249.5
288.15 K, x1 = 0.463	812.346	1225.8
288.15 K, x1 = 0.61	793.998	1186.3
288.15 K, x1 = 0.688	784.329	1166
288.15 K, x1 = 0.797	770.803	1137.3
288.15 K, x1 = 0.902	757.81	1108.5
288.15 K, x1 = 0.943	752.561	1097.5
288.15 K, x1 = 1	744.861	1083.4
290.65 K, x1 = 0.053	862.236	1321.9
290.65 K, x1 = 0.116	854.153	1304.8
290.65 K, x1 = 0.199	843.533	1284.2
290.65 K, x1 = 0.301	830.472	1257.4
290.65 K, x1 = 0.371	821.675	1238.5
290.65 K, x1 = 0.463	809.929	1215
290.65 K, x1 = 0.61	791.542	1175.6
290.65 K, x1 = 0.688	781.848	1155
290.65 K, x1 = 0.797	768.289	1126.6
290.65 K, x1 = 0.902	755.262	1098.2
290.65 K, x1 = 0.943	750	1086.8
290.65 K, x1 = 1	742.259	1071.6
293.15 K, x1 = 0.053	859.905	1310.9
293.15 K, x1 = 0.116	851.805	1293.8
293.15 K, x1 = 0.199	841.167	1273.2
293.15 K, x1 = 0.301	828.083	1246.4
293.15 K, x1 = 0.371	819.27	1227.5
293.15 K, x1 = 0.463	807.497	1203.9
293.15 K, x1 = 0.61	789.068	1164.7
293.15 K, x1 = 0.688	779.352	1143.9
293.15 K, x1 = 0.797	765.757	1115.7
293.15 K, x1 = 0.902	752.693	1087.4
293.15 K, x1 = 0.943	747.415	1075.9
293.15 K, x1 = 1	739.654	1060
295.65 K, x1 = 0.053	857.569	1299.9
295.65 K, x1 = 0.116	849.458	1282.8
295.65 K, x1 = 0.199	838.799	1262.2
295.65 K, x1 = 0.301	825.688	1235.4
295.65 K, x1 = 0.371	816.857	1216.5
295.65 K, x1 = 0.463	805.058	1193
295.65 K, x1 = 0.61	786.587	1153.6
295.65 K, x1 = 0.688	776.847	1132.8
295.65 K, x1 = 0.797	763.216	1104.9
295.65 K, x1 = 0.902	750.116	1076.7
295.65 K, x1 = 0.943	744.822	1064.8
295.65 K, x1 = 1	737.036	1048.5
298.15 K, x1 = 0.053	855.229	1288.9
298.15 K, x1 = 0.116	847.105	1271.8
298.15 K, x1 = 0.199	836.426	1251.2
298.15 K, x1 = 0.301	823.289	1224.5
298.15 K, x1 = 0.371	814.439	1205.5
298.15 K, x1 = 0.463	802.616	1181.8
298.15 K, x1 = 0.61	784.1	1142.6
298.15 K, x1 = 0.688	774.335	1122
298.15 K, x1 = 0.797	760.667	1093.8
298.15 K, x1 = 0.902	747.528	1065.7
298.15 K, x1 = 0.943	742.221	1053.5
298.15 K, x1 = 1	734.406	1036.9
300.65 K, x1 = 0.053	852.886	1278.1
300.65 K, x1 = 0.116	844.749	1260.8
300.65 K, x1 = 0.199	834.049	1240.2
300.65 K, x1 = 0.301	820.886	1213.6
300.65 K, x1 = 0.371	812.02	1194.5
300.65 K, x1 = 0.463	800.168	1170.8
300.65 K, x1 = 0.61	781.607	1131.6
300.65 K, x1 = 0.688	771.814	1111.4
300.65 K, x1 = 0.797	758.108	1082.6
300.65 K, x1 = 0.902	744.931	1054.4
300.65 K, x1 = 0.943	739.606	1042.1
300.65 K, x1 = 1	731.766	1025.4
303.15 K, x1 = 0.053	850.544	1267.3
303.15 K, x1 = 0.116	842.388	1250
303.15 K, x1 = 0.199	831.668	1229.3
303.15 K, x1 = 0.301	818.477	1202.6
303.15 K, x1 = 0.371	809.592	1183.6
303.15 K, x1 = 0.463	797.712	1159.8
303.15 K, x1 = 0.61	779.104	1120.6
303.15 K, x1 = 0.688	769.287	1100.2
303.15 K, x1 = 0.797	755.539	1071.4
303.15 K, x1 = 0.902	742.321	1043.1
303.15 K, x1 = 0.943	736.98	1030.7
303.15 K, x1 = 1	729.112	1013.9
305.65 K, x1 = 0.053	–	1256.5
305.65 K, x1 = 0.116	–	1239.1
305.65 K, x1 = 0.199	–	1218.4
305.65 K, x1 = 0.301	–	1191.7
305.65 K, x1 = 0.371	–	1172.6
305.65 K, x1 = 0.463	–	1148.8
305.65 K, x1 = 0.61	–	1109.7
305.65 K, x1 = 0.688	–	1089
305.65 K, x1 = 0.797	–	1060.2
305.65 K, x1 = 0.902	–	1031.7
305.65 K, x1 = 0.943	–	1019.3
305.65 K, x1 = 1	–	1002.4
